Tests used:
[1] = Median lethal dose (LD50); settings: mouse, in vivo, ip; mice, I.p., 24 h mortality
Protocol: Adopting the procedure described by Finney, different known concentrations of the imidamide 4 were intraperitoneally injected into a group of eight mice (weight on average 21.1 g). […] This assay was carried out evaluate its dose-safety limit and select the dose to be used in the treatment.

[2] = Serum biochemical parameters in mice; type: in vivo; settings: 6 mg/Kg BW
Protocol: We randomly divided 50 mice into groups 5 groups (10 mice in each group): normal control (I) (mice injected intraperitoneally with the same volume of solvent for 14 consecutive days); group II, a group of normal mice treated with compound 4 (mice injected intraperitoneally with newly produced compound 4 at a dose of 6 mg/kg per day for 14 days); group III, solid tumor group (mice were implanted with solid tumor); group IV, group were treated with 5-FU (after 10 days of tumor implantation, mice were treated with 6 mg/kg only once); and group V, solid tumor group were treated with compound 4 (after 10 days of tumor implantation, mice were treated with 6 mg/kg only once). after one day of the previous treatment, 10 mice from each group were sacrificed and tumor weight, tumor volume (length and width of solid femoral tumor), blood and liver samples were obtained from each group. A portion of each blood sample taken was used for complete blood count (CBC) and the rest was centrifuged to obtain the serum. Serum was used for biochemical parameter estimation. The livers were rapidly dissected, washed with isotonic saline, and dried. The experiment design is summarized in Supplementary Figure S3.
Evaluation of the activities of aspartate aminotransferase (AST) and alanine aminotransferase (ALT) using a commercial kit (ELITech Clinical Systems, France). The serum albumin level was measured using a kit obtained from STANBIO Company (USA). A commercial kit from the BioDiagnostic Company (Cairo, Egypt) was used to evaluate creatinine and urea levels.

HepG2 liver cancer cells = experiment: MTT assay for cytotoxic screening, HepG2; type: cell-based, human; settings: Homo sapiens, HepG2, 48 h, mean ± SE, n = 3
Protocol: The in vitro anti-cancer activity was assessed using the MTT assay. […] Staurosporine and 5-FU were used as reference drugs. HepG2 cells (1 × 10^4 cells/well, 96-well plate) were maintained in DMEM media supplemented with 2mML-glutamine (Lonza, Verviers, Belgium) and 10% FBS (Sigma, St. Louis, MO, USA), 1% Penicillin/Streptomycin (Lonza, Verviers, Belgium) according to the routine culture work. Cultures were incubated for 48 h with serial dilutions (0.01, 0.1, 1, 10, 100 µM) of the tested compounds. Finally, cell viability was determined by measuring the absorbance λ570 nm according to the following formula: % of cell viability = (A sapmple/A control) ×100, then IC50 calculation was calculated using GraphPad Prism 7 software.

HepG2 cells = experiment: DNA content flow cytometry cell cycle analysis; type: cell-based, human; settings: HepG2, IC50 = 0.017 μM, 48 h; control 12.26%
Excerpt: Apoptotic cells were quantified using double staining with annexin V and PI on flow cytometry. […] The detailed methodology of flow cytometric analysis (annexin V/PI differential apoptosis/necrosis, DNA content–flow cytometry aided cell cycle) is provided in the Supplementary Materials.
Supplementary materials for detailed methodology
Evaluation of 2-thioxoimadazolidin-4-one Derivatives as Potent
Anti-cancer Agents Through Apoptosis Induction and Antioxi-dant Activation: In vitro and In vivo Approaches
Mohamed S. Nafie 1,*, Ahmed I. Khodair 2,*, Hebat Allah Y. Hassan 3, Noha M. Abd El-Fadeal 4, Hanin A. Bogari 5 , Sameh S. Elhady 6 and Safwat A. Ahmed 3,7,* […]
Apoptosis and necrosis cell populations are determined using Annexin V-FITC apop-tosis detection kit (Abcam Inc., Cambridge Science Park, Cambridge, UK) coupled with 2 fluorescent channels flowcytometry. […]
Then, cells are incubated in dark with 0.5 ml of Annexin V-FITC/PI solution for 30 min in dark at room temperature according to manufacturer protocol. After staining, cells are injected via ACEA Novocyte™ flowcytometer (ACEA Biosciences Inc., San Diego, CA, USA) and analyzed for FITC and PI fluorescent signals using FL1 and FL2 signal detector, respectively (λex/em 488/530 nm for FITC and λex/em 535/617 nm for PI). […]

O=C1NC(=S)N(c2ccc(O)cc2)/C1=C/c1cccs1 [Compound 4, (E)-1-(4-Hydroxyphenyl)-5-(thiophen-2-ylmethylene)-2-thioxoimidazolidin-4-one]
LD50 at 24 h [1]: 6 mg/kg
Creatinine ([2]; SEC-bearing mice): 1.0 ± 0.1 mg/dL
Albumin ([2]; SEC-bearing mice, SEC control 4.01 ± 0.4): 3.43 ± 0.1 g/dL
Total Protein ([2]; SEC-bearing mice, SEC control 6.6 ± 0.4): 7.4 ± 0.2 g/dL
Urea ([2]; SEC-bearing mice, SEC control 25.2 ± 2.3): 27 ± 1.5 mg/dL
AST ([2]; SEC-bearing mice, SEC control 48.9 ± 5.5): 37.8 ± 8.4 U/L
ALT ([2]; SEC-bearing mice, SEC control 50 ± 2.7): 37.4 ± 10.4 U/L
Creatinine ([2]; normal mice, normal control 1.6 ± 0.2): 1.1 ± 0.2 mg/dL
Albumin ([2]; normal mice, normal control 4.4 ± 0.4): 4.4 ± 0.8 g/dL
Total Protein ([2]; normal mice, normal control 6.9 ± 0.4): 6.9 ± 1.5 g/dL
Urea ([2]; normal mice, normal control 27.8 ± 2.6): 28.13 ± 2.7 mg/dL
ALT ([2]; normal mice, normal control 35.3 ± 3.8): 43.25 ± 7.4 U/L
AST ([2]; normal mice, normal control 37.4 ± 2.8): 44.9 ± 10.8 U/L
IC50 (HepG2 liver cancer cells): 17 ± 4 nM
% cells in G2/M phase (HepG2 cells): 21.15%

From publication PMC8746798, “Evaluation of 2-Thioxoimadazolidin-4-one Derivatives as Potent Anti-Cancer Agents through Apoptosis Induction and Antioxidant Activation: In Vitro and In Vivo Approaches” (Molecules, 2021)
